Test results reported in patent US11873486B2, “Modulating dsRNA editing, sensing, and metabolism to increase tumor immunity and improve the efficacy of cancer immunotherapy and/or modulators of intratumoral interferon” (Dana-Farber Cancer Institute, Inc., priority 2017, dated 2024).
Entries after “also recorded” stand apart in the source; their conditions may differ.

Legend:
[1] = tested on: interferon stimulated genes in ADAR-dependent cell lines; test: Immunoblot of interferon stimulated gene expression after inhibitor treatment; assay type: cell-based, human; details: for ISG expression / interferon signaling: antioxidant treatment of ADAR-dependent cell lines
Procedure: (§1) For drug treatment assays, cells were plated at a density of 3000 cells per well in a 96-well assay plate. The following day, cells were treated with ruxolitinib (INCB018424) from Selleck Chemicals; MRT67307 hydrocloride (SML0702) from Sigma-Aldrich; human interferon-alphal (#8927) from Cell Signaling; recombinant human IFN-beta 1a (mammalian) protein (114151) and recombinant human IFN-gamma protein (285-IF-100) from R&D Systems. For preincubation drug treatment experiments, cells were plated in the presence of ruxolitinib and were treated with interferon-0 and ruxolitinib the following day. Control wells were treated with dimethylsulfoxide (DMSO). Cell viability was assayed 3 or 6 days after drug treatment with CellTiter-Glo® Luminescent Cell Viability Assay kit (Promega). Viability was normalized to DMSO controls.
Cells were lysed in RIPA lysis buffer (Thermo Scientific) supplemented with 1× protease and phosphatase inhibitor cocktails (Roche). Protein extracts were analyzed by standard immunoblotting with the following antibodies: ADAR1 (D7E2M), MDA5 (D74E4), RIG-I (D14G6), ISG15 (22D2), USP18 (D4E7), PKR (#3072), STING (D2P2F), cGAS (D1D3G), IRF9 (D2T8M), PD-L1 (E1L3N), P-IRF3 Ser396 (4D4G), IRF3 (D6I4C), P-TBK1 Ser172 (D52C2), TBK1 (D1B4), P-EIF2α Ser51 (#9721), and EIF2α (D7D3) from Cell Signaling; P-PKR Thr446 (ab32036) from Abcam; R-actin C4 (sc-47778) from Santa Cruz. All antibodies were used at a dilution of 1:1000 except R-actin which was used at 1:4000). The following secondary antibodies were used at 1:5000 dilution: Goat anti-Rabbit IRDye 800CW (LI-COR, 926-32211) and Goat anti-Mouse IRDye […] (LI-COR, 926-68020). All immunoblots were imaged using the LI-COR digital imaging system and ImageJ.

B16 tumors = test: B16 tumor challenge (tumor volume, survival); assay type: in vivo, mouse; details: topical, every three days
Description: The designs of these animal studies and procedures were approved by the Dana Farber Cancer Institute IACUC committee. Dana Farber's specific-pathogen free facility was used for the storage and care of all mice. Seven-week old wild-type female C57BL/6J mice were obtained from Jackson laboratories (Bar Harbor, ME). A colony of B6.129S2-Tcra^tm1Mom/J (Tcra) T cell-deficient mice were bred on site. Mice were aged matched to be 7-12 weeks old at the time of tumor inoculation. For screening, 2.0×10^6 library-transduced B16-Cas9 cells resuspended in Hanks Balanced Salt Solution (Gibco, Thermo Fisher Scientific, Waltham, MA) were mixed 1:1 by volume with Matrigel® (Corning, Corning, NY) and subcutaneously injected into the right flank on day 0. Mice were vaccinated with 1.0×10^6 GM-CSF-secreting B16 (GVAX) cells that had been irradiated with […] on days 1 and 4 to elicit an anti-tumor immune response. Subsequently, mice were treated with 100 μg of rat monoclonal anti-PD1 antibody (clone: 29F.1A12) on days 9 and 12 via intraperitoneal injection. For validation assays, 1.0×10^6 tumor cells were subcutaneously injected into the right flank without matrigel. Tumors were measured every 3 days beginning on day 6 after challenge until time of death. Measurements were taken manually by collecting the longest dimension (length) and the longest perpendicular dimension (width). Tumor volume was estimated with the formula: (L×W^2)/2. CO2 inhalation was used to euthanize mice on the day of sacrifice.
The designs of animal studies and procedures were approved by the Dana Farber Cancer Institute IACUC and the Broad Institute IACUC committees. Specific pathogen-free facilities at the Dana Farber and the Broad Institute were used for the storage and care of all mice. Six-week old wild-type female C57BL/6J mice were obtained from Jackson laboratories, Bar Harbor ME A colony of B6.129S2-Tcra^tm1Mom/J (Tcra) T cell-deficient mice were bred on site at the Dana Farber. […] Tumors were measured every 3 days beginning on day 6 after challenge until time of death. […]

ADA1 = molecular target: T1, ADA1 (Homo sapiens, UniProt P00813); details: cited from earlier work
T1 sequence (P00813 1-363): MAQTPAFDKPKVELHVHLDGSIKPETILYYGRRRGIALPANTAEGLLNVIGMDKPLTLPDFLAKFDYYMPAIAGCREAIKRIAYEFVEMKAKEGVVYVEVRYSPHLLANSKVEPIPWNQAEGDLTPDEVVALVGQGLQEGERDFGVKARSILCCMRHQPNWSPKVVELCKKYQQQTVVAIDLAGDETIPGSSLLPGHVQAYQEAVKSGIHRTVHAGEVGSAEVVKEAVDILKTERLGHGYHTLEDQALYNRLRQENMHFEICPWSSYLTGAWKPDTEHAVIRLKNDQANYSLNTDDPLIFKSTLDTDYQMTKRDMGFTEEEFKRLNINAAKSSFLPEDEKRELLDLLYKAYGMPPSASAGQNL

[2] = tested on: ADAR1 knockout A549 cells; test: Viability of ADAR1 knockout A549 cells with interferon or drug treatment; assay type: cell-based, human
Procedure: as §1
for interferon treatment assays, cells were plated at a low density of 3000 cells per well in a 96-well assay plate. The following day, cells were treated with human interferon-alpha 1 (Cell Signaling, #8927) or recombinant human IFN-beta 1a (mammalian) protein (PBL Assay Science, 114151). Control wells were treated with water. Cell viability was assayed 3 or 6 days after drug treatment with CellTiter-Glo© Luminescent Cell Viability Assay kit (Promega). Viability was normalized to controls. Apoptosis was assayed 3 days after interferon treatment with Caspase-Glo®3/7 Assay kit (Promega). Dose curves were obtained using least-squares nonlinear regression on a standard four-parameter logistic model using GraphPad Prism.

ADA2 = molecular target: T2, ADA2 (Homo sapiens, UniProt Q9NZK5); details: cited from earlier work
T2 sequence (Q9NZK5 30-511): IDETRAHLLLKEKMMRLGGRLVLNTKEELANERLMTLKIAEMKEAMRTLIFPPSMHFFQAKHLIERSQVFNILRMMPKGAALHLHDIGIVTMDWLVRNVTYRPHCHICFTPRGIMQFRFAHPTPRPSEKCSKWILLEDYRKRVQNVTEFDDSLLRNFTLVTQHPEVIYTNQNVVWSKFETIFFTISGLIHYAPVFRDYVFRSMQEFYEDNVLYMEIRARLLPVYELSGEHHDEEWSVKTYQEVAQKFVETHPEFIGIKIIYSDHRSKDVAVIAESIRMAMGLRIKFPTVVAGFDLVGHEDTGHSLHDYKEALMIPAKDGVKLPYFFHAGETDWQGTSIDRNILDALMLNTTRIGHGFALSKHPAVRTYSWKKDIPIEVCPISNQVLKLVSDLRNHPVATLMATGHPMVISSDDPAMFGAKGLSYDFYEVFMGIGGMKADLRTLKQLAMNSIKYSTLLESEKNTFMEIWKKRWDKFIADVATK

B16 tumor cells = test: In vitro cytokine stimulation and growth inhibition assay; assay type: cell-based, mouse; details: Adar-deficient versus control B16 tumor cells, 72 hours
Procedure: FIG. 9 includes 3 panels, identified as panels A, B, and C, which provide exemplary mechanisms of ADAR-induced sensitivity to checkpoint blockade. […] A certain number of B16 tumor cells (50 k; Adar null or control) were stimulated in vitro with cytokine for 72 hours and the cell numbers were then counted. […] A certain number of B16 tumor cells (50 k; Adar null or control) were stimulated with cytokine in vitro, washed to remove cytokine (for IFNβ), and evaluated via IFNβ ELISA. […] A certain number of B16 tumor cells (50 k; Adar null or control) were stimulated in vitro with cytokine for 72 hours and stained for Class I MHC and PD-L1.
Tumor cells were engineered as noted above and plated in DMEM+10% FBS containing the indicated combinations of cytokines: IFN (1,000 U/ml, PBL), IFN (100 ng/ml, Cell Signaling Technologies), TNF (10 ng/ml, PreproTech). For rescue/re-expression experiments, 10,000 cells were plated in 96-well plates and viable cells were enumerated after 72 hours using Cell Titer-Glo® (Promega, G7570). For all other growth inhibition assays, 50,000 cells were plated in 12-well plates and viable cells were counted after 72 hours using the Countess automated cell counting system (Thermo Fisher Scientific, C10227).

[3] = animals bearing Adar1 null B16 tumors

Cl.O=C(NCCCNc1nc(Nc2cccc(CN3CCOCC3)c2)ncc1C1CC1)C1CCC1 [MRT67307, MRT67307 hydrocloride]
ISG expression ([1]; TBK1 inhibitor treatment): reduced

c1ccc2c(c1)[I+]c1ccccc1-2 [DPI, diphenylene iodonium]
ISG expression / interferon signaling [1]: partially decreased ISG expression | ISG expression / interferon signaling ([1]; listed as diphenylene iodonium (DPI)): partially alleviates interferon signaling

CC(C)Cn1cnc2c(N)nc3ccccc3c21 [imiquimod]
survival (B16 tumors; [3]): enhanced survival | tumor growth (B16 tumors; [3]): significantly slowed tumor growth | survival (B16 tumors; animals bearing control B16 tumors): nor topical therapy with imiquimod, a TLR7 agonist, increased the survival

erythro-9-(2-hydroxy-3-nonyl)adenine [EHNA]
inhibition of ADA1 (ADA1): specifically inhibits ADA1

Type II interferon: recombinant human IFN-gamma protein (R&D Systems)
sensitization to ADAR1 knockout [2]: did not sensitize A549 cells to ADAR1 knockout

Nc1ccnc2c1ncn2[C@@H]1O[C@H](CO)[C@@H](O)[C@H]1O [1-deazaadenosine]
inhibition of ADA2 (ADA2): can inhibit both ADA1 and ADA2

COc1cccc2c1C(=O)c1c(O)c3c(c(O)c1C2=O)C[C@@](O)(C(=O)CO)C[C@@H]3O[C@H]1C[C@H](N)[C@H](O)[C@H](C)O1 [doxorubicin]
sensitization to ADAR1 knockout [2]: failed to sensitize A549 cells to ADAR1 knockout

C[C@@H]1O[C@@H](O[C@H]2[C@H](Oc3cc(O)c4c(c3)O[C@H](c3ccc(O)cc3)CC4=O)O[C@H](CO)[C@@H](O)[C@@H]2O)[C@H](O)[C@H](O)[C@H]1O [naringin]
inhibition of ADA1 (ADA1): potent ADA1 inhibitor

IFNγ
cytokine-induced growth arrest (B16 tumor cells): increases IFNβ and IFNγ-induced growth arrest; also recorded: increases susceptibility to IFNβ and IFNγ

OC[C@H]1O[C@@H](n2cnc3c2NC=NC[C@H]3O)C[C@@H]1O [pentostatin]
inhibition of ADA2 (ADA2): can inhibit both ADA1 and ADA2
